One assay deals with SK-MEL-5 cells. As to the kind of experiment: SK-MEL-5 cell cytotoxicity assay (CellTiter-Glo). The assay is classed as cell-based, human. To be noted: Homo sapiens, SK-MEL-5; 24 hours, CellTiter-Glo; read-out: Target Potency IC50 (μM) SKMEL5. As for the experimental part:
SK-MEL-5 cells were treated with compounds for 24 hours, and then cell viability was measured using the CellTiter-Glo Assay (Promega), a luciferase-based reagent that measures cellular ATP levels. The compounds were tested at different concentrations to determine IC50 values. Compounds that were active in the primary assay and toxic below 30 μM at 24 hours were considered for probe development. Data were normalized against DMSO in Genedata Screener's Assay Analyzer.
SK-MEL-5 cells were maintained in DMEM (10% FBS, 1% Pen-Strep-Glutamine). Cells were fluid changed every 3 days and/or split upon reaching 100% confluency. For secondary assays, cells were thawed at 4 million cells per Falcon T175 flask. After 3 days, the cells were fluid changed, after 3 more days cells were passed to a Corning Triple flask (10-15 million cells) and plated after 3 days in the triple flask.
Day 1 • 1. Plate SK-MEL-5 cells at 3,000 per well in 30 uL media (phenol red free DMEM/10% Fetal Bovine Serum/Penicillin/Streptomycin/L-Glutamine) • 2. Use Corning white 384-well, square, opaque-bottomed plates (Corning Catalog No. 8867BC)
Day 2 • 3. Pin 100 nL compound/DMSO solution (Cybi Well) into assay plates. (For HTS, required sentinel pinning with the positive control, parthenolide (6 mM)) • 4. […]
Day 3 • 5. […] Read on the Perkin-Elmer EnVision plate reader with luminescence (LUM) settings for 0.1 sec per well. […]
Background: In ATP-based viability assays light output follows the ATP content of the culture.

In a further assay the test system is DCT. As to the kind of experiment: qPCR assay for DCT expression in SK-MEL-5 cells. The class given is cell-based. To be noted: Homo sapiens; SK-MEL-5 melanoma cells, up to 35 μM. (In general: Quantitative PCR measures a nucleic acid by following its amplification.)
A further assay has as its system MLANA. As to the kind of experiment: qPCR assay for MLANA expression in SK-MEL-5 cells. The assay is classed as cell-based. The note with it: Homo sapiens; SK-MEL-5 melanoma cells, up to 35 μM.
The next assay addresses T1, Adenosine A1 (Homo sapiens, UniProt P30542).
T1 construct: Eurofins Panlabs, Inc. (contract assay) 200510 (assay number)
Description: Radioligand binding, Adenosine A1.

The target in another assay is T2, Adenosine A2A (Homo sapiens, UniProt P29274).
T2 construct: Eurofins Panlabs, Inc. (contract assay) 200610 (assay number)
T2 sequence (P29274 whole entry): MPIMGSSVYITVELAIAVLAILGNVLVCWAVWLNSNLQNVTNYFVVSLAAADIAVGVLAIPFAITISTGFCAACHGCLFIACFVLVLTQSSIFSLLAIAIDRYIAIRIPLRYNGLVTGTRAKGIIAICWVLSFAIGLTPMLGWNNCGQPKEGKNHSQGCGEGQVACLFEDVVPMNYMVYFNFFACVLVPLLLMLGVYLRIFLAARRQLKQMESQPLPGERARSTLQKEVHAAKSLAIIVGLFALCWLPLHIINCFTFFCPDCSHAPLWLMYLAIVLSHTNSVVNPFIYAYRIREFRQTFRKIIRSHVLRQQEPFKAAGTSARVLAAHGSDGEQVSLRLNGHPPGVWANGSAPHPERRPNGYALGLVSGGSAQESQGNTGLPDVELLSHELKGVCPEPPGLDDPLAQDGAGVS
Description: Radioligand binding, Adenosine A2A.

The next assay has as its target T3, Adenosine A3 (Homo sapiens, UniProt P0DMS8).
T3 construct: Eurofins Panlabs, Inc. (contract assay) 200720 (assay number)
As to the kind of experiment: Radioligand binding, Adenosine A3.

Another assay deals with T4, Adrenergic α1D (Homo sapiens, UniProt P25100).
T4 construct: Eurofins Panlabs, Inc. (contract assay)
As to the kind of experiment: Radioligand binding, Adrenergic α1D.

Another assay has as its target T5, Adrenergic β1 (Homo sapiens, UniProt P08588).
T5 construct: Eurofins Panlabs, Inc. (contract assay)
As to the kind of experiment: Radioligand binding, Adrenergic β1.

For the next assay, the target named is T6, Bradykinin B2 (Homo sapiens, UniProt P30411).
T6 construct: Eurofins Panlabs, Inc. (contract assay)
As to the kind of experiment: Radioligand binding, Bradykinin B2.

In the next assay the target is T7, Dopamine D1 (Homo sapiens, UniProt P21728).
T7 construct: Eurofins Panlabs, Inc. (contract assay)
Description: Radioligand binding, Dopamine D1.

The target of another assay is T8, Endothelin ETA (Homo sapiens, UniProt P25101).
T8 construct: Eurofins Panlabs, Inc. (contract assay)
T8 sequence (P25101 21-427): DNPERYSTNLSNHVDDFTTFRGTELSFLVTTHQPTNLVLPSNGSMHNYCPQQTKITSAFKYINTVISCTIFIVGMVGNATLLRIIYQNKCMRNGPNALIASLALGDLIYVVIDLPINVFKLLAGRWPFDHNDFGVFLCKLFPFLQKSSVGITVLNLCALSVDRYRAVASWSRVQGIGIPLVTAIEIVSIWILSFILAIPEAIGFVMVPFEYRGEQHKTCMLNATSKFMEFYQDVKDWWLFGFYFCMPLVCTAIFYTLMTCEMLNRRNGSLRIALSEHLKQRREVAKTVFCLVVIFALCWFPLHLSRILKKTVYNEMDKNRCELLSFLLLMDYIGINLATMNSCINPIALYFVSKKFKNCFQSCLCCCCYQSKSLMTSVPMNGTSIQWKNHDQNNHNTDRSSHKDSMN
Description: Radioligand binding, Endothelin ETA.

The target in a further assay is T9, Glucocorticoid (Homo sapiens, UniProt P04150).
T9 construct: Eurofins Panlabs, Inc
T9 sequence (P04150 whole entry): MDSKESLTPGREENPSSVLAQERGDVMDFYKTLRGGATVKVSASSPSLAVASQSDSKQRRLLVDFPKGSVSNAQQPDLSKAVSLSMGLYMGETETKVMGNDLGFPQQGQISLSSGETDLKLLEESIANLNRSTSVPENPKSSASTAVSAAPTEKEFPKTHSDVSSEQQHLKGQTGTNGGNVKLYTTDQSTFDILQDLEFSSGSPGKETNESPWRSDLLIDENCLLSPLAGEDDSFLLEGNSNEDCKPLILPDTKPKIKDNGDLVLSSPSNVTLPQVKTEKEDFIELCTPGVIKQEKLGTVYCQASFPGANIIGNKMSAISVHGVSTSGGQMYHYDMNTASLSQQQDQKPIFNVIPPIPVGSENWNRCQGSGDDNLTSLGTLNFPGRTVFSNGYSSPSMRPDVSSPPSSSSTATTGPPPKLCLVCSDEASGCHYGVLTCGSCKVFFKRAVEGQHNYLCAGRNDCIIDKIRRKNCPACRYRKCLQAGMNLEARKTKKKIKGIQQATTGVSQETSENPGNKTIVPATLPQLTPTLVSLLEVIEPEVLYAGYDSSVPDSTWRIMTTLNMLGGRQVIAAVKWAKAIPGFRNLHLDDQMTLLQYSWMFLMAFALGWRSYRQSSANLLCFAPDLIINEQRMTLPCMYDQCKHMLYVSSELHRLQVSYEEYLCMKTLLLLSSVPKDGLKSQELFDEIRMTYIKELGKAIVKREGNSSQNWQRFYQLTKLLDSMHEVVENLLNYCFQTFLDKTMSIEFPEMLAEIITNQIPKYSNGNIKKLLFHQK
As to the kind of experiment: Radioligand binding, Glucocorticoid.

A further assay deals with T10, Glutamate, NMDA, Glycine (Rattus norvegicus, UniProt P35439).
T10 construct: Eurofins Panlabs, Inc
Description: Radioligand binding, Glutamate, NMDA, Glycine.

In a further assay the target is T11, Muscarinic M3 (Homo sapiens, UniProt P20309).
T11 construct: Eurofins Panlabs, Inc
T11 sequence (P20309 whole entry): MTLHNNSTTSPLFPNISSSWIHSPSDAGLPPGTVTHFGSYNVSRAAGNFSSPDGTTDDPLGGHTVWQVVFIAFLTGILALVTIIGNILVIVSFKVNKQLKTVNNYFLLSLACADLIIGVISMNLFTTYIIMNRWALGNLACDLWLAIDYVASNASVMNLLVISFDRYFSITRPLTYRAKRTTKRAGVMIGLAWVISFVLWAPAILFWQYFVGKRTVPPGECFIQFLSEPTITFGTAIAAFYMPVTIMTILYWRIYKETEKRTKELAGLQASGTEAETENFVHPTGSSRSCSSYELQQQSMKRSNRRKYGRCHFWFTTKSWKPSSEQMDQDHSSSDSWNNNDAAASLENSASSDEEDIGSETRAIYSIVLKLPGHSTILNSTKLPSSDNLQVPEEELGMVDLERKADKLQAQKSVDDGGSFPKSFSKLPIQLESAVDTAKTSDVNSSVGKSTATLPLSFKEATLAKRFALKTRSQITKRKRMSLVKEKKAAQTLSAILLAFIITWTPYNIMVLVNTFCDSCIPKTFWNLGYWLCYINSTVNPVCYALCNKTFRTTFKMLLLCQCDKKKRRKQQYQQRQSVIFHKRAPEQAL
As to the kind of experiment: Radioligand binding, Muscarinic M3.

The next assay addresses T12, Opiate δ1 (OP1, DOP) (Homo sapiens, UniProt P41143).
T12 construct: Eurofins Panlabs, Inc
Description: Radioligand binding, Opiate δ1 (OP1, DOP).

The next assay deals with T13, Opiate μ (OP3, MOP) (Homo sapiens, UniProt P35372).
T13 construct: Eurofins Panlabs, Inc
T13 sequence (P35372 whole entry): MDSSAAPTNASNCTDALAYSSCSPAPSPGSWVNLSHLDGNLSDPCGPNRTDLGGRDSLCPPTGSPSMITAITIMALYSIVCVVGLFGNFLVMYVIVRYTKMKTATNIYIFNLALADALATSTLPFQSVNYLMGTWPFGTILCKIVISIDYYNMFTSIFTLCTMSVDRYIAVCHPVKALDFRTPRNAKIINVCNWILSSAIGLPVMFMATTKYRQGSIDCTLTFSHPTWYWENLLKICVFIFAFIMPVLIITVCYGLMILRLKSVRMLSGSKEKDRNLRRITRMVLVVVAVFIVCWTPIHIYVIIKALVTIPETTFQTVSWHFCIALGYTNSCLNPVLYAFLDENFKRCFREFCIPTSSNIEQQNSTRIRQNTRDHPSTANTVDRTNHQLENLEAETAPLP
As to the kind of experiment: Radioligand binding, Opiate μ (OP3, MOP).

Another assay deals with T14, Potassium Channel [KATP] (Cricetus cricetus, UniProt Q09427).
T14 construct: Eurofins Panlabs
As to the kind of experiment: Radioligand binding, Potassium Channel [KATP]. To be noted: hamster. As for the experimental part: To evaluate, in radioligand binding assays, the activity of the compound of Example 1 across a panel of 67 receptors.
Methods employed in this study have been adapted from the scientific literature to maximize reliability and reproducibility. Reference standards were run as an integral part of each assay to ensure the validity of the results obtained.
Where presented, IC50 values were determined by a non-linear, least squares regression analysis using MathIQ™ (ID Business Solutions Ltd., UK). Where inhibition constant (Ki) are presented, the Ki values were calculated using the equation of Cheng and Prusoff (Cheng. Y., Prusoff, W. H., Biochem. Pharmacol. 22:3099-3108, 1973) using the observed IC50 of the tested compound, the concentration of radioligand employed in the assay, and the historical values of the KD of the ligand (obtained experimentally at Eurofins Panlabs, Inc.). Where presented, the Hill coefficient (nH), defining the slope of the competitive binding curve, was calculated using MathIQ™. […] Where IC50, Ki, and/or nH data are presented without Standard Error of the Mean (SEM), data are insufficient to be quantitative, and the values presented (Ki, IC50, nH) should be interpreted with caution.

The target in assay [1] is T15, Serotonin (5-Hydroxytryptamine) 5-HT1A (Homo sapiens, UniProt P08908).
T15 construct: Eurofins Panlabs
T15 sequence (P08908 whole entry): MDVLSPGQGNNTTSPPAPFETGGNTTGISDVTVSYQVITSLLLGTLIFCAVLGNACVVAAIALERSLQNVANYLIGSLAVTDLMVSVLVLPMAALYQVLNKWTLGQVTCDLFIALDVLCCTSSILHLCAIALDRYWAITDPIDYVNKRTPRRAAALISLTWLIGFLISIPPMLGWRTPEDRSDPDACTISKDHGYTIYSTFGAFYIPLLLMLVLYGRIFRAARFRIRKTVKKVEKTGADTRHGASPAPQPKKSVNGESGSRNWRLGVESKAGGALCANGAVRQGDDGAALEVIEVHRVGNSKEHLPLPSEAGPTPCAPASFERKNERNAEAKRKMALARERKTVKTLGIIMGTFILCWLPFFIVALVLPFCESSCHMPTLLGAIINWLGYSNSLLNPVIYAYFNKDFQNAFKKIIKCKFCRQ
Description: Radioligand binding, Serotonin (5-Hydroxytryptamine) 5-HT1A.

Assay [2] addresses T16, Serotonin (5-Hydroxytryptamine) 5-HT3 (Homo sapiens, UniProt P46098).
T16 construct: Eurofins Panlabs
Description: Radioligand binding, Serotonin (5-Hydroxytryptamine) 5-HT3.

Assay [3] addresses T17, Transporter, Serotonin (5-Hydroxytryptamine) (SERT) (Homo sapiens, UniProt P31645).
T17 construct: Eurofins Panlabs
As to the kind of experiment: Radioligand binding, Transporter, Serotonin (5-Hydroxytryptamine) (SERT).

T1 sequence (P30542 whole entry): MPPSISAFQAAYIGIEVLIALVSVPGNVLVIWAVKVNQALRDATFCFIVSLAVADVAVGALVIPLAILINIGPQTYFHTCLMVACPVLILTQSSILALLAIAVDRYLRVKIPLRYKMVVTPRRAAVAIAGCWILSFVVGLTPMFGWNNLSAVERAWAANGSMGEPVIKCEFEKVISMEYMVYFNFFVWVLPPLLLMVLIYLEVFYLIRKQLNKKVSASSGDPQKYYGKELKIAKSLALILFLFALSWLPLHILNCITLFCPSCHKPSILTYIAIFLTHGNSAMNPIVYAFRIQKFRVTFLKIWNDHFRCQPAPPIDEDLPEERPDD
T17 sequence (P31645 whole entry): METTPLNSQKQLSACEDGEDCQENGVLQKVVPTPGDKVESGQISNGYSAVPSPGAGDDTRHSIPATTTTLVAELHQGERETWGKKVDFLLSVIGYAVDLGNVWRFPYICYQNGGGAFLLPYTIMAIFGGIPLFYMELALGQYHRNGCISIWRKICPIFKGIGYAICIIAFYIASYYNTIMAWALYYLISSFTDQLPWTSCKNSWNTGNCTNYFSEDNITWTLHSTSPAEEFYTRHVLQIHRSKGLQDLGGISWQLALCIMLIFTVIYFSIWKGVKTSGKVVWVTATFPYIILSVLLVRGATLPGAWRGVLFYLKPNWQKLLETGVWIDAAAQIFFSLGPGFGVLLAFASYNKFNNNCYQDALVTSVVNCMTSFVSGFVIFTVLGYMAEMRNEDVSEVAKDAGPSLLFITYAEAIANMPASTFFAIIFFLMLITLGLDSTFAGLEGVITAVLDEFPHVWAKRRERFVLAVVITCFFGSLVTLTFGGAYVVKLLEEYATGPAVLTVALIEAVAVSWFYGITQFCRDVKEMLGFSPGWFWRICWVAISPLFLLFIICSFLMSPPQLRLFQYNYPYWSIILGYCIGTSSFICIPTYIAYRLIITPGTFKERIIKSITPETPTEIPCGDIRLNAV
T16 sequence (P46098 24-478): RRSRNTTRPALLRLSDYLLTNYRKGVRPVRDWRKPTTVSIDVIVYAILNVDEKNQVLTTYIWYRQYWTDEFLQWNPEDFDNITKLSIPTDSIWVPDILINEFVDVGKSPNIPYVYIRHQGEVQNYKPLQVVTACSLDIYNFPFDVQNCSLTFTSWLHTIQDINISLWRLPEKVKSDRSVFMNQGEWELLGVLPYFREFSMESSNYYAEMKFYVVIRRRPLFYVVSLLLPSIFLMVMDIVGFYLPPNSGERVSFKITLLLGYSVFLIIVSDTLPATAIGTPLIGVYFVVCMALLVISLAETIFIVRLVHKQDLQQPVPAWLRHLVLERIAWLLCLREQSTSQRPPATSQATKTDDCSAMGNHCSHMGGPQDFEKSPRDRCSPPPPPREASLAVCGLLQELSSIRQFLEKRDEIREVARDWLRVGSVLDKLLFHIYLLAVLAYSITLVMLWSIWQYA
T3 sequence (P0DMS8 whole entry): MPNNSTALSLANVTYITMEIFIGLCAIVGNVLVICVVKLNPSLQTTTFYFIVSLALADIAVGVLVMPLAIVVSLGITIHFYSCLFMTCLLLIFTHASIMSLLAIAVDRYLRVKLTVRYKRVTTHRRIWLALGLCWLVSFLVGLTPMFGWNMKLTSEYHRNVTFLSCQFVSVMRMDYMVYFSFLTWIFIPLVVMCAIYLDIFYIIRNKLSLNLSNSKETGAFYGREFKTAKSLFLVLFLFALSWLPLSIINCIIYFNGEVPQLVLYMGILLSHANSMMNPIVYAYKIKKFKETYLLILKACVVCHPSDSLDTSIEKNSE

In the case of `NS(=O)(=O)c1ccc(NC2=CC(=O)c3ccccc3C2=O)cc1` [4-((1,4-dioxo-1,4-dihydronaphthalen-2-yl)amino)benzenesulfonamide], the IC50 (as a rule, the point on the concentration scale where inhibition reaches its midpoint) in the assay on SK-MEL-5 cells is 0.75 µM. In addition, the EC50 – broadly, the concentration needed to bring the measured effect to its halfway point – in the assay on DCT was 0.1 µM; in the assay on MLANA, 0.5 µM.
For the compound `NS(=O)(=O)c1ccc(NC2=CC(=O)c3ccccc3C2=O)cc1` [Example 1, 4-((1,4-Dioxo-1,4-dihydronaphthalen-2-yl)amino)benzenesulfonamide], the inhibition (in general, the drop in the measured response relative to a control, in per cent) at 10 µM is 46% on Adenosine A1; 50% on Adenosine A2A; 15% on Adenosine A3; 21% at Adrenergic α1D; 20% at Adrenergic β1; 11% on Bradykinin B2. Further, the inhibition at 10 µM is 21% at Dopamine D1; 17% at Endothelin ETA; 5% on Glucocorticoid; 9% at Glutamate, NMDA, Glycine; 22% at Muscarinic M3; -6% at Opiate δ1 (OP1, DOP). Besides, the inhibition at 10 µM was 1% at Opiate μ (OP3, MOP); 10% on Potassium Channel [KATP]; 21% in assay [1]; 5% in assay [2]; -5% in assay [3].

Values taken from patent US9745261B2, “Inhibitors of the MITF molecular pathway” (THE GENERAL HOSPITAL CORPORATION, priority 2013, dated 2017).
